Results published in article PMC5877509, “Cys Site-Directed Mutagenesis of the Human SLC1A5 (ASCT2) Transporter: Structure/Function Relationships and Crucial Role of Cys467 for Redox Sensing and Glutamine Transport” (International Journal of Molecular Sciences, 2018).
Substitutions are numbered along the chain they refer to. Each block holds one molecule with its values, some of them ahead of it.

Columns and labels:
Type in all cases: biochemical
[1] = biological target: T1, hASCT2 (Homo sapiens, UniProt Q15758, C467A); assay: [3H]Gln transport inhibition in proteoliposomes, dose-response
T1 construct: gene SLC1A5; recombinant hASCT2-His6, purified from P. pastoris, in proteoliposomes
T1 sequence (Q15758 1-541 C467A): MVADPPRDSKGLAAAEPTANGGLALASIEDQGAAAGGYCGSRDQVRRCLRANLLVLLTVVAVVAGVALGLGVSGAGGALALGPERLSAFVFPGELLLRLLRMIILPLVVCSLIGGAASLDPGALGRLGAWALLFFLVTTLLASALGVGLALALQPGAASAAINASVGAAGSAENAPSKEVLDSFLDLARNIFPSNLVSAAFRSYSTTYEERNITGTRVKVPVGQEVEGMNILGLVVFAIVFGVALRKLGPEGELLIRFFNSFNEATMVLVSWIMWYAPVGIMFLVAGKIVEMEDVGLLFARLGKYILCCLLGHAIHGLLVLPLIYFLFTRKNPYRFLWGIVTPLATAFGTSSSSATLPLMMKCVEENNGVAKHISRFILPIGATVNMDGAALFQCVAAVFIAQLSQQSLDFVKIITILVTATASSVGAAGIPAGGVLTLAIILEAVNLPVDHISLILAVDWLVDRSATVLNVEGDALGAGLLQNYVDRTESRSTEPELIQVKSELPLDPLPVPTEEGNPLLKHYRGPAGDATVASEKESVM

[2] = biological target: T2, hASCT2 (Homo sapiens, UniProt Q15758); assay: [3H]Gln transport inhibition in proteoliposomes at […]
T2 construct: gene SLC1A5; recombinant hASCT2-His6, purified from P. pastoris, in proteoliposomes
T2 sequence (Q15758 1-541): T1 sequence (Q15758 1-541 C467A) with A467C

[3] = biological target: T1, hASCT2; assay: [3H]Gln transport kinetics (external Km) in proteoliposomes
[4] = biological target: T2, hASCT2; assay: as above
[5] = biological target: T2, hASCT2; assay: [3H]Gln transport inhibition in proteoliposomes at […]; conditions: read-out: % inhibition at 1 mM
[6] = biological target: T2, hASCT2; assay: [3H]Gln transport inhibition in proteoliposomes, dose-response

Compound: N[C@@H](CS)C(=O)O [Cys]
- IC50 [1]: 16.6 ± 1.62 µM
- [3H]Gln transport inhibition in proteoliposomes at 1 mM [2]: While Cys strongly inhibited the transport; in this case, inhibition occurred by a mechanism not involving S-S/SH inter-conversion

- Km [3]: 202 ± 33 µM
- Km [4]: 35 ± 10 µM
Compound: NC(=O)CC[C@H](N)C(=O)O [Gln]

Compound: CCN1C(=O)C=CC1=O [NEM]
- inhibition at 1000 µM [5]: ~50%

Compound: CS(=O)(=O)SCCS(=O)(=O)O [MTSES, Sodium (2-sulfonatoethyl)methane thiosulfonate]
- IC50 [6]: 129 ± 21 µM
